Columns and labels:
[1] = system: intraocular pressure (IOP) in normotensive monkeys; experiment: Multidose study: twice-daily topical Compound A suspension with once daily topical latanoprost, IOP in conscious monkeys; format: in vivo, cynomolgus monkeys (Macaca fascicularis)
Description: Ten female, ocular normotensive cynomolgus monkeys (Macaca fascicularis), aged 3 to 4 years old at initiation of treatment, were acclimated to ocular topical dosing and repeated IOP measurements using a pneumatonometer (Model 30 Classic) without general anesthesia or sedation (conscious) and dosed as indicated in Table 1.
Intraocular pressure was measured from both eyes (three readings/eye/time interval with mean values represented in the data tables) beginning approximately 1 hour predose, at Time 0 (just prior to dosing), and after dosing at various time intervals. Mean IOP values and the percent change in IOP levels from the baseline level were calculated. The FIGS. 5 and 6 show summarized data from this phase of the study of the combined IOP mean values of treatments and standard deviation of the mean for the control. The control plot includes the combined mean values of all treatments (BSS alone and BSS in combination with Placebo). The mean IOP levels in the control eye ranged from 21 to 22 mmHg.

[2] = system: intraocular pressure (IOP) in normotensive monkeys; experiment: IOP after single topical ocular dosing of Compound A with or after latanoprost in conscious normotensive monkeys (Treatments 1-5); format: in vivo, cynomolgus monkeys (Macaca fascicularis); details: pre-clinical studies
Description: Compound A was administered in two different formulations: […]
The aqueous formulation comprised of the following: […]
The control in the first treatment was a 40 mcL composition of 0.8% sodium chloride (NaCl), 0.15% citrate, 0.01% benzalkonium chloride, 0.3% polysorbate 80, and 0.7% sodium (Na) carboxymethylcellulose.
In the third treatment, 10 monkeys received latanoprost (Xalatan™) dosed via 2 drops at 15 mcL apart (at a concentration of 50 mcg/mL) for a total dose of 1.5 mcg in one study eye and 2 drops of saline vehicle in the contralateral eye. This treatment was performed at two separate times with a sufficient washout between treatments. The IOPs of both the study eye and contralateral eye were measured repeatedly using a calibrated pneumotonometer following an application of a topical anesthetic (proparacaine).
In the fourth treatment, 10 monkeys received latanoprost (Xalatan™) topically dosed via 2 drops at 15 mcL apart (at a concentration of 50 mcg/mL) for a total dose of 1.5 mcg in one study eye and saline in the contralateral eye. […] The intraocular pressures (IOP) of both the study eye and contralateral eye were measured repeatedly using a calibrated pneumotonometer following an application of a topical anesthetic (proparacaine). […]

[3] = Compound A 65 μg/dose BID plus latanoprost 1.5 μg QD, right eye

SMILES | reduction in IOP compared with latanoprost alone ([1]; Compound A 65 μg/dose BID (130 μg/day) suspension plus latanoprost 1.5 μg QD, right eye, 1 hour after each Compound A dose (Time 0 and 5 hours)) | IOP reduction at peak trough after the first daily dose [1, 3] | IOP reduction at peak trough after the second daily dose [1, 3] [%] | IOP reduction by the combination of Compound A and latanoprost [2] | reduction from the mean IOP baseline levels ([1]; latanoprost alone 1.5 μg/dose once daily topical, right eye, at peak trough) | reduction of mean IOP levels at peak trough ([1]; latanoprost alone 1.5 μg/dose once daily topical, right eye, repeated dosing, n=10) | IOP of treated eyes versus control eyes ([1]; latanoprost alone, after repeated treatments for two weeks, including pre-dose times)
O=[N+]([O-])OC[C@H]1O[C@@H](n2cnc3c(NC4CCCC4)ncnc32)[C@H](O)[C@@H]1O [Compound A, ((2R,3S,4R,5R)-5-(6-(cyclopentylamino)-9H-purin-9-yl)-3,4-dihydroxytetrahydrofuran-2-yl)methyl nitrate] | greater reduction in IOP | approximately 12% | ~17 | significant IOP reduction |  |  | 
CC(C)OC(=O)CCC/C=C\C[C@@H]1[C@@H](CC[C@@H](O)CCc2ccccc2)[C@H](O)C[C@@H]1O [latanoprost, isopropyl-(Z)-7[(1R,2R,3R,5S)3,5-dihydroxy-2-[(3R)-3-hydroxy-5-phenylpentyl]cyclopentyl]-5-heptenoate, reference compound] |  |  |  |  | approximately 13% | about 2 mm Hg | slightly lower than that of the control eyes
